According to patent publication US11779565B2, “Small organic molecules for use in the treatment of neuroinflammatory disorders” (THE MEDICAL RESEARCH, INFRASTRUCTURE AND HEALTH SERVICES …, priority 2017, dated 2023):
Entries after “also recorded” stand apart in the source; their conditions may differ.

Columns and labels:
P19 cells = experiment: In vitro differentiation assay of P19 cells (MAP-2 positive neurons); assay type: cell-based, murine; conditions: for MAP-2+ cells: day 8; for effect on neuronal phenotype (number of MAP-2+ cells) vs. RA+BMP-2: RA + rhBMP-2 + SM at 0.625, 1.25 and 2.5 μM
Description: P19 cells were grown in a-minimum essential medium (aMEM) (Gibco) containing 7.5% calf serum, 2.5% fetal calf serum, and 0.4 μl/ml penicillin—streptomycin (Gibco), at 37° C., 5% CO2. Cells were replenished with fresh medium every 48 h.
The medium, including RA, BMP supplements and SMs, was replenished after 48 h. After 4 days, aggregates which formed during RA treatment were dispersed enzymatically (0.05% v/v trypsin-0.02% v/v EDTA) and mechanically and plated in tissue culture grade dishes. At this stage, cells were cultured in RA-, BMP- and SM-free medium, which was refreshed every 48 h. MAP-2 positive neurons were examined at day 8 (i.e., day 4 post-RA treatment) by immunofluorescence. Briefly, at day 7, cells were re-cultured in 24 well-plates with cover slips at a final concentration of 5×10^4 cells/well. On day 8, cells were washed with PBS, fixed with PFA 4% for 15 min, permeabilized with 0.5% Triton Tx, blocked with 10% FCS, 0.1% BSA and 0.05% Tween for 30 min, and stained with MAP2 rabbit mAb (1:100, D5G1, Cell Signaling) for 1 hr. The second antibody step was performed by labeling with Alexa Fluor® 488-conjugated IgG antibody to rabbit for 1 h (1:1000; Molecular Probes USA).
Next, the effect of the small molecules on neurogenesis in a P19 differentiation model was measured. […] Neuronal differentiation is marked by the expression of the neuronal marker MAP-2, while the addition of BMP-2 reduces the levels of this marker. Addition of the murine anti-BMP-2/4 monoclonal antibody reverses the effect of BMP-2 and induces acquisition of neuronal phenotype. Thus, the effect of SM1, SM7 and SM9 on the expression of the neuronal marker MAP-2 in P19 cells was examined in the presence of RA and BMP-2. Three concentrations of the molecules were tested: 0.625 μM, 1.25 μM and 2.5 μM.

RR-EAE mice [1] = experiment: RR-EAE model in SJL mice, clinical score; assay type: in vivo; conditions: for EAE clinical score: 10 mg/kg/day i.p.
Description: RR-EAE was induced in SJL female mice (6-8 week old) by subcutaneous immunization (day 0) with 100 μg/mouse proteolipid protein peptide (PLP139-151, synthesized by Sigma-Aldrich) in 0.1 ml PBS. The peptide was emulsified in an equal volume of Complete Freund's Adjuvant (CFA, from DIFCO) containing 500 μg Mycobacterium tuberculosis H37RA (MT, from DIFCO). The mice also received an intraperitoneal injection of 300 ng pertussis toxin (PTX, from Sigma-Aldrich) in 0.2 ml PBS. A second injection of PTX (300 ng/mouse) was given 48 h later.
Mice were monitored for symptoms of RR-EAE and were scored as follows: “0” for no disease; “1”, tail paralysis; “2”, hind limb weakness; “3”, hind limb paralysis; “4”, hind limb and forelimb weakness/paralysis; “5”, moribund.
The effect of the small molecule inhibitors that were identified in Example 1 above was further tested in vivo using the experimental autoimmune encephalomyelitis (EAE) model in SJL mice. EAE serves as a model for Relapsing/Remitting multiple sclerosis (MS). EAE was induced as described in the experimental procedures section. SMs 1-9 or vehicle alone (5% DMSO in PBS) were daily administered by intraperitoneal injections of 250 μg/mouse (10 mg/kg/day), starting from day 9 post immunization, for the next 30 days. The animals were monitored until day 45 post-induction for symptoms of EAE and scored as follows: 0=no disease, 1=tail paralysis, 2=hind limb weakness, 3=hind limb paralysis, 4=hind limb plus forelimb paralysis, and 5=moribund.
Experiments were repeated with the 4 above-mentioned molecules SM1, SM6, SM7 & SM9. The experiment was conducted under similar conditions as the previous one, except that two dosages of the molecules were administered: a dose of 10 mg/kg and dose of 20 mg/kg, namely 250 μg/mouse and 500 μg/mouse on days 9-38 (see FIG. 4).

SMAD1/5/8 signaling = SMAD1/5/8 signaling by Western blot in P19 cells; assay type: cell-based, murine; conditions: 4 h
Description: P19 cells were seeded in 6-well-plates (3.5×10^5 cells/well). On the following day, the cells were either untreated or treated with 5×10^−7 M RA, 5 ng/ml BMP-2 or SMs for 4 h. Cells were washed with ice cold PBS, harvested and lysed with ice cold RIPA buffer (Sigma-Aldrich) supplemented with protease inhibitor cocktail and sodium orthovanadate (Na3VO4) as phosphatase inhibitor (Sigma-Aldrich). Protein concentrations were determined using a BCA protein assay kit (Pierce, Rockford, Ill.). Cell lysates (40-60 μg protein) were separated by 4-15% SDS-PAGE gel electrophoresis and then transferred to nitrocellulose membranes at 0.2 A for 2 h. The membranes were blocked at room temperature for 1 h in 5% (w/v) non-fat-dried milk and then incubated with anti-phospho-Smad1/5/9, anti-Smad1 (Cell signaling Technology, Beverly, Mass., USA) and anti-tubulin (Sigma-Aldrich) antibodies at room temperature for 2 h. The membranes were washed and incubated with alkaline phosphatase-conjugated secondary antibody (Jackson Laboratories Immune Research, PA, USA). Signal was detected using enhanced chemiluminescence kit (Clarity, Bio-Rad Laboratories, Richmond, Calif.) and digital images were captured by MicroChemi (DNR Bio-imaging Systems, Jerusalem, Israel). Protein levels were quantified using ImageJ software and normalized to {alpha}-tubulin.
The canonical BMP signal is known to be mediated via SMAD phosphorylation. BMPs transduce signals by binding to complexes of type I and II serine/threonine kinase receptors. Ligand binding induces phosphorylation of the receptors, which then activate canonical signaling via receptor Smads (R-Smads) 1, 5 and 8. R-Smads are phosphorylated by the activated type I receptor. They then complex with Smad4, triggering nuclear translocation. The effect of the SMs on the phosphorylation of the canonical SMAD1/5/8 signaling, induced in P19 cells in response to stimulation with BMP-2, was examined.

RR-EAE mice [2] = experiment: Demyelination in EAE: LFB-H&E staining of lumbar spinal cord; assay type: in vivo; conditions: day 48 post immunization (vehicle 28.3±1.8%)
Description: FIGS. 6A-6B—The effect of SM1, SM6, SM7 and SM9 on demyelination. FIG. 6A: Representative images of the lumbar spinal cord section, stained with LFB (anterio lateral funiculus), of mice treated with vehicle, SM1 10 mg/kg/day, SM1 20 mg/kg/day, SM7 10 mg/kg/day, SM9 10 mg/kg/day, SM9 20 mg/kg/day, SM6 10 mg/kg/day and SM6 20 mg/kg/day. FIG. 6B: Quantification of myelinated area. […] Quantification was performed using Image J software on 6 mice/group and 3 sections/mouse.
The direct effect of the SMs on the demyelination and remyelination processes was analyzed. Spinal cord was removed from 6 mice of each group and the lumbar segment of the spinal cord was sectioned (10 μm coronal paraffin section) and was processed for LFB-H&E (luxol fast blue with H&E) for myelin and infiltrates staining.

[3] = first experiment, 10 mg/kg/day i.p. from day 9 for 30 days, vs. vehicle
[4] = second experiment, 10 and 20 mg/kg, vs. vehicle
[5] = second experiment, high dosage 20 mg/kg, days 9-38, vs. vehicle
[6] = second experiment, low dosage 10 mg/kg, days 9-38, vs. vehicle
[7] = first experiment, day 21 post immunization (vehicle 1.1±0.3)

SMILES	MAP-2+ cells (P19 cells; RA + rhBMP-2 + SM 2.5 μM)	effect on neuronal phenotype (number of MAP-2+ cells) vs. RA+BMP-2 (P19 cells)	effect on EAE clinical score (RR-EAE mice [1]; [3])	EAE clinical score (RR-EAE mice [1]; first experiment, day 19 post immunization (vehicle 1.1±0.3))	EAE clinical score (RR-EAE mice [1]; first experiment, day 27)	number of mice with moderate-severe EAE (clinical score at least 2) (RR-EAE mice [1]; [4])	effect on EAE clinical score (RR-EAE mice [1]; [5])	effect on EAE clinical score (RR-EAE mice [1]; [6])	reduction in p-SMAD/tubulin compared to stimulation with BMP-2 alone (SMAD1/5/8 signaling; 2.5 μM)	reduction in p-SMAD/tubulin compared to stimulation with BMP-2 alone (SMAD1/5/8 signaling; 5 μM)	% myelinated area (LFB-stained area of total spinal cord section) (RR-EAE mice [2]; 10 mg/kg)	effect on EAE clinical score (RR-EAE mice [1]; second experiment, 10 and 20 mg/kg, days 9-38)	number of mice with a more severe EAE (RR-EAE mice [1]; second experiment, during the second relapse (vehicle 5-6 mice))	number of mice with a more severe EAE (RR-EAE mice [1]; second experiment, during the third relapse (vehicle 8-9 mice))	MAP-2+ cells (P19 cells; RA + rhBMP-2 + SM 1.25 μM)	EAE clinical score (RR-EAE mice [1]; [7])	mice died by the end of the experiment (RR-EAE mice [1]; second experiment, high dose group 20 mg/kg, day 48)	mice died by the end of the experiment (RR-EAE mice [1]; second experiment, low dose group 10 mg/kg, day 48, n=14)	% myelinated area (LFB-stained area of total spinal cord section) (RR-EAE mice [2]; 20 mg/kg)	MAP-2+ cells (P19 cells; RA + rhBMP-2 + SM 0.625 μM (low concentration))
COC(=O)c1sccc1N/N=C(\C#N)S(=O)(=O)c1cccs1 [SM1, Methyl 3-[(2E)-2-[cyano(thiophen-2-ylsulfonyl)methylidene]hydrazinyl]thiophene-2-carboxylate]	62.2±3.9%	reversed the effect of BMP-2; also recorded: induced neuronal phenotype at all examined concentrations	beneficial effect	0.5±0.2	0.3±0.3	beneficial effect	trend for amelioration	significant beneficial effect	24.2%	19.9%	–	–	–	–	–	–	–	–	–	–
O=C(Nc1cccc(C(F)(F)F)c1)c1ccc([N+](=O)[O-])o1 [SM6, N2-[3-(trifluoromethyl)phenyl)-5-nitro-2-furamide]	–	–	did not show any beneficial effect	–	–	reduced	–	–	–	–	34.8±1.6%	milder and not significant	2-3 mice	5-7 mice	–	–	–	–	–	–
N#Cc1c(O)nsc1Nc1ccccc1C(F)(F)F [SM7, 3-hydroxy-5-[2-(trifluoromethyl)aniline]isothiazole-4-carbonitrile]	No significant effect	reversed the effect of BMP-2; also recorded: induced neuronal phenotype at both the low and the mild concentrations	beneficial effect	–	–	–	–	–	40.0%	–	34.0±0.8%	–	–	–	76.1±3.1%	0.6±0.1	all of the mice died	8 mice	–	–
CS(=O)(=O)c1noc(-c2ccc(Cl)cc2)c1C#N [SM9, 5-(4-chlorophenyl)-3-methylsulfonyl-1,2-oxazole-4-carbonitrile]	80.6±10.0%	reversed the effect of BMP-2	beneficial effect	–	–	beneficial effect	ameliorated EAE	ameliorated EAE	42.7%	–	–	–	–	–	76.4±12.6%	0.8±0.3	–	–	34.6±1.6%	not effective
